pIC50: −log10 of the molar value.
How the values were obtained:
[1] = biological target: T1, abietadiene synthase (AgABS) (Abies grandis, UniProt Q38710); type: biochemical
T1 sequence (Q38710 71-868): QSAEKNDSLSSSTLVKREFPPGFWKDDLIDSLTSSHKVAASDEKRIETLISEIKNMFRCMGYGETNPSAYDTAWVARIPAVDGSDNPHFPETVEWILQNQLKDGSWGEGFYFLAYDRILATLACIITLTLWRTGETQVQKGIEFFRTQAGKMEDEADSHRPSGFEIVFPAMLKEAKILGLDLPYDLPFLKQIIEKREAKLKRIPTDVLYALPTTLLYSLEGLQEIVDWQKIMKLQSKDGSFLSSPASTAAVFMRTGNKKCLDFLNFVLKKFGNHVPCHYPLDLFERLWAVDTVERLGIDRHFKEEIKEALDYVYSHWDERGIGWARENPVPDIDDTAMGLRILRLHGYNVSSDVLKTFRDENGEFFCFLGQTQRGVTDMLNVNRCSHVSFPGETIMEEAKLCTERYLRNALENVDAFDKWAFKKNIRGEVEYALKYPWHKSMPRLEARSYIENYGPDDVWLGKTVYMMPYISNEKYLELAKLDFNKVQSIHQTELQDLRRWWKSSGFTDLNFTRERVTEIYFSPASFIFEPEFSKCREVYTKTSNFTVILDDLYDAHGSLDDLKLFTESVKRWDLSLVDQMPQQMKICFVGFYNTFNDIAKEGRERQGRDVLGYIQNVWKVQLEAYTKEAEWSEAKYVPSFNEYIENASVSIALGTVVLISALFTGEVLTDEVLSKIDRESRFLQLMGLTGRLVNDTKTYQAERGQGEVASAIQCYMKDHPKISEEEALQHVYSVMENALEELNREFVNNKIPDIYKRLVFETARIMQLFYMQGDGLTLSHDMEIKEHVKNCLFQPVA

[2] = biological target: T2, M. tuberculosis Rv3377c (halimadienyl diphosphate synthase) (Mycobacterium tuberculosis, UniProt O50406); type: biochemical
T2 sequence (O50406 1-501): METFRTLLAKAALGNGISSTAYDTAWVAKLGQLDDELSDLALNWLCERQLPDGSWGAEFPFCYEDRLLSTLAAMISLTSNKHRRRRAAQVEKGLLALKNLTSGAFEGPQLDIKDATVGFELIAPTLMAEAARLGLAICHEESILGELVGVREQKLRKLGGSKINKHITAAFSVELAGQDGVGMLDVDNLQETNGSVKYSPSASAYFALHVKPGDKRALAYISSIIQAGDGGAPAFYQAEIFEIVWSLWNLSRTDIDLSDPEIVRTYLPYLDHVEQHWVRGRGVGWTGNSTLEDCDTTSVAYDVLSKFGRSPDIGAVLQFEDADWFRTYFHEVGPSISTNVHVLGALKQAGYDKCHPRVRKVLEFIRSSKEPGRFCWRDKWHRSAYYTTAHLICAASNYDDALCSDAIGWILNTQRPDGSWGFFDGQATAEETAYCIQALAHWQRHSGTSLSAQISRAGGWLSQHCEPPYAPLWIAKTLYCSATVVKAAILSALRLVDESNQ

| Structure (SMILES) | effect on ABS activity [1] | activity against the M. tuberculosis protein (Rv3377c) [2] | also measured |
| --- | --- | --- | --- |
| O=P(O)(O)C(O)(Cc1cnc2ccccn12)P(=O)(O)O [minodronate] | no effect | no activity | – |
| CC(C)=CCCC(C)=CCCC(C)=CCC(P(=O)(O)O)P(=O)(O)O [BPH-850, farnesylmethylene bisphosphonate] | – | – | comparison of IC50 using GGPP or CPP as substrate, ABS ([1]; GGPP versus CPP as substrate): about the same IC50 |
| O=P(O)(O)C(O)(Cn1ccnc1)P(=O)(O)O [zoledronate] | no effect | no activity | – |
| C=CCN(C)CCCCCCCCCCCCCCCC(=O)OC [BPH-922] | – | – | pIC50 [1]: 6.60 |
| C/C(=C\CC/C(C)=C/COP(=O)(O)OP(=O)(O)O)CC/C=C(\C)CCCN(C)C [15-aza-GGPP] | – | – | pIC50 ([2]; read-out: Rv3377c inhibition (quantity not given)): 8.30 |

From PMC3805035 (Proteins, 2010)
